Assay results as given in patent EP4596574A1, “GLP-1/GCG/GIP TRIPLE-RECEPTOR AGONIST AND USE THEREOF” (Sunshine Lake Pharma Co., Ltd., priority 2022, dated 2024).
Marks after values point to notes of the source that are not given here.

Experiments:
[1] = target: T1, GLP-1R (Homo sapiens, UniProt P43220); experiment: In vitro cell activity, cAMP production in HEK293 cells expressing GLP-1R; format: cell-based
T1 construct: expressed in transfected cells; host or cells: HEK293 (HEK293-GLP-1R)
Method in brief: (§1)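 cAMP output read as 665/620 nm HTRF ratio after adding cAMP-d2 plus anti-cAMP cryptate and incubating 1 h at room temperature in the dark or overnight at 4 °C. Cells: HEK293 expressing human GLP-1R or GCGR, plated from a 4×10^5 cells/mL suspension. Four-parameter fit gives EC50.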

[2] = target: T2, GCGR (Homo sapiens, UniProt P47871); experiment: In vitro cell activity, cAMP production in HEK293 cells expressing GCGR; format: cell-based
T2 construct: expressed in transfected cells; host or cells: HEK293 (HEK293-GCGR)
Method in brief: as §1

[3] = target: T3, GIPR (Homo sapiens, UniProt P48546); experiment: In vitro cell activity, cAMP production in HEK293 cells expressing GIPR; format: cell-based
T3 construct: expressed in transfected cells; host or cells: HEK293 (HEK293-GIPR)
T3 sequence (P48546 22-466): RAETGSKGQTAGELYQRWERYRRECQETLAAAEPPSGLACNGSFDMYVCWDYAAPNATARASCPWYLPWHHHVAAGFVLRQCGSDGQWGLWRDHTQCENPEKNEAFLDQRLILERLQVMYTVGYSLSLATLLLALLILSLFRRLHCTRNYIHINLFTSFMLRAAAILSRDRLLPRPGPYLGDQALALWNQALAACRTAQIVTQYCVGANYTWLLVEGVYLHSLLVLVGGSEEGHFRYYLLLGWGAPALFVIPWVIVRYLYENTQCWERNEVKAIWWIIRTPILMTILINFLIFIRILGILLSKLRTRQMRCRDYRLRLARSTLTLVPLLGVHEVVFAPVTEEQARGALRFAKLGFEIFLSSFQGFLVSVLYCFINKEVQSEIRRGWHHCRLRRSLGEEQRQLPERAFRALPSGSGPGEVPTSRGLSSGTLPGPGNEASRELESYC
Method in brief: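 HEK293 cells expressing human GIPR, thawed and diluted to 4×10^5 cells/mL, are stimulated with test compound. cAMP is measured by HTRF competition between cAMP-d2 and anti-cAMP cryptate. EC50 comes from a four-parameter nonlinear fit of signal ratio against concentration.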

[4] = Glucose tolerance assessment in normal C57BL/6 mice (Example 4); format: in vivo; details: for Blood glucose level (mM) 15 min / Blood glucose level (mM) 30 min / Blood glucose level (mM) 60 min / Blood glucose level (mM) 90 min / Blood glucose level (mM) 0 min / AUC0-90 min: 3 nmol/kg s.c. single dose, 24 h after administration; for Blood glucose level (mM) 15 min: 15 min after 2 g/kg glucose i.p.; for Blood glucose level (mM) 30 min: 30 min after 2 g/kg glucose i.p.; for Blood glucose level (mM) 60 min: 60 min after 2 g/kg glucose i.p.; for Blood glucose level (mM) 90 min: 90 min after 2 g/kg glucose i.p.; for Blood glucose level (mM) 0 min: basal before 2 g/kg glucose i.p.; for AUC0-90 min: blood glucose AUC, 2 g/kg glucose i.p.
Experimental: Twelve hours after the single administration, the animals were fasted for 12 hours and had free access to water. Blood was collected from the tail vein to determine the basal blood glucose level of each group of animals, and then 2 g/kg glucose solution was injected intraperitoneally. Blood glucose was tested at 15, 30, 60, and 90 min after glucose administration. The blood glucose concentration-time curve was drawn according to the blood glucose values measured at different time points, and the AUC0~90min of each dose group was calculated as shown in Table 4 and Figure 1. Table 4: Effects of single administration of HEC-PT74, HEC-PT75, HEC-PT77, HEC-PT78, HEC-PT80, and HEC-PT82 on glucose tolerance in normal C57 mice 24 h after administration

[5] = In vivo efficacy evaluation in db/db mouse model (blood glucose); parameters: species or system db/db mice
Experimental: Blood glucose was tested before each administration.

T1 sequence (P43220 24-463, species assumed): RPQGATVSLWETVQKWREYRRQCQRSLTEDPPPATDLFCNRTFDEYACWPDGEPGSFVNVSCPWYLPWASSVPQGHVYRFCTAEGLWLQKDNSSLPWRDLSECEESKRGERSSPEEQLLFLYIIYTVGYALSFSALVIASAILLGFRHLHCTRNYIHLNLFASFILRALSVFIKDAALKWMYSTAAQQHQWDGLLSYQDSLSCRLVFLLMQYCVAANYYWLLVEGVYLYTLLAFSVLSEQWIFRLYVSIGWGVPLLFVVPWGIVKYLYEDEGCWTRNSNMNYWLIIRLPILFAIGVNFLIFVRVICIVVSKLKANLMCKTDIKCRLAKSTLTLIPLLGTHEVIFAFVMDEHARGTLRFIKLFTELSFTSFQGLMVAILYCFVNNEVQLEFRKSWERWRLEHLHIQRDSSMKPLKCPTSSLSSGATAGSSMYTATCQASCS
T2 sequence (P47871 26-477, species assumed): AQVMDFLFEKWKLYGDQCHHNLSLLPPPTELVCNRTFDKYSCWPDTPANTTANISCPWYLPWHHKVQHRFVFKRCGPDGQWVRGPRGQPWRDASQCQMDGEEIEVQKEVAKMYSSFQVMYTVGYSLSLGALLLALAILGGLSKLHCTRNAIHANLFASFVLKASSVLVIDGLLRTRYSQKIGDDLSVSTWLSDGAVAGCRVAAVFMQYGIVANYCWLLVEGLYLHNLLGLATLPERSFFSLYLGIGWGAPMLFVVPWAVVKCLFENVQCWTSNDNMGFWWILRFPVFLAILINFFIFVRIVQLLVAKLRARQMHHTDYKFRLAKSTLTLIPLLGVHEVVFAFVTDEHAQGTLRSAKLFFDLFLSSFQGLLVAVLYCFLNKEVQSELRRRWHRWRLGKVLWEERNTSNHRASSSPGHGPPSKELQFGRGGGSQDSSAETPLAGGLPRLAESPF

Row | Structure (SMILES) | EC50 [1] [nM] | EC50 [2] [nM] | EC50 [3] [nM] | Blood glucose level (mM) 15 min [4] [mM] | Blood glucose level (mM) 30 min [4] [mM] | Blood glucose level (mM) 60 min [4] [mM] | Blood glucose level (mM) 90 min [4] [mM] | Blood glucose level (mM) 0 min [4] [mM] | AUC0-90 min [4] | also measured
1 | CC[C@H](C)[C@H](NC(=O)[C@H](Cc1ccccc1)NC(=O)[C@H](CCC(=O)O)NC(=O)[C@H](CCC(N)=O)NC(=O)[C@H](CCC(N)=O)NC(=O)[C@H](C)NC(=O)[C@H](CCCCNC(=O)COCCOCCNC(=O)CC[C@H](NC(=O)CCCCCCCCCCCCCCCCC(=O)O)C(=O)O)NC(=O)[C@H](CCC(=O)O)NC(=O)[C@H](CC(=O)O)NC(=O)[C@H](CC(C)C)NC(=O)[C@H](CC(C)C)NC(=O)[C@@H](NC(=O)[C@H](CO)NC(=O)[C@H](Cc1ccc(O)cc1)NC(=O)[C@H](CC(=O)O)NC(=O)[C@H](CO)NC(=O)[C@@H](NC(=O)[C@](C)(Cc1ccccc1F)NC(=O)[C@@H](NC(=O)CNC(=O)[C@H](Cc1c[nH]cn1)NC(=O)C(C)(C)NC(=O)[C@@H](N)Cc1ccc(O)cc1)[C@@H](C)O)[C@@H](C)O)[C@@H](C)CC)C(=O)N[C@@H](CCC(=O)O)C(=O)N[C@@H](Cc1c[nH]c2ccccc12)C(=O)N[C@@H](CC(C)C)C(=O)N[C@@H](CC(C)C)C(=O)N[C@@H](C)C(=O)NCC(=O)NCC(=O)N1CCC[C@H]1C(=O)N[C@@H](CO)C(=O)N[C@@H](CO)C(=O)NCC(=O)N[C@@H](C)C(=O)N1CCC[C@H]1C(=O)N1CCC[C@H]1C(=O)N1CCC[C@H]1C(=O)N[C@@H](CO)C(=O)O [HEC-PT80] | 0.341 | 1.27 | 0.0506 | 11.1 ± 2.0 | 9.3 ± 1.7 | 7.2 ± 1.0 | 5.5 ± 0.5 | 4.6 ± 1.1 | 707.6±98.4^a | improvement of glucose tolerance compared with LY3298176 ([4]; 24 hours after a single administration, 3 nmol/kg): more effective in improving glucose tolerance than the positive control LY3298176
2 | CC[C@H](C)[C@H](NC(=O)[C@H](Cc1ccccc1)NC(=O)[C@H](CCC(=O)O)NC(=O)[C@H](CCC(N)=O)NC(=O)[C@H](CCC(N)=O)NC(=O)[C@H](C)NC(=O)[C@H](CCCCNC(=O)COCCOCCNC(=O)CC[C@H](NC(=O)CCCCCCCCCCCCCCCCCCC(=O)O)C(=O)O)NC(=O)[C@H](CCC(=O)O)NC(=O)[C@H](CC(=O)O)NC(=O)[C@H](CC(C)C)NC(=O)[C@H](CC(C)C)NC(=O)[C@@H](NC(=O)[C@H](CO)NC(=O)[C@H](Cc1ccc(O)cc1)NC(=O)[C@H](CC(=O)O)NC(=O)[C@H](CO)NC(=O)[C@@H](NC(=O)[C@](C)(Cc1ccccc1F)NC(=O)[C@@H](NC(=O)CNC(=O)[C@H](CCC(N)=O)NC(=O)C(C)(C)NC(=O)[C@@H](N)Cc1ccc(O)cc1)[C@@H](C)O)[C@@H](C)O)[C@@H](C)CC)C(=O)N[C@@H](CCC(=O)O)C(=O)N[C@@H](Cc1c[nH]c2ccccc12)C(=O)N[C@@H](CC(C)C)C(=O)N[C@@H](CC(C)C)C(=O)N[C@@H](CCC(=O)O)C(=O)NCC(=O)NCC(=O)N1CCC[C@H]1C(=O)N[C@@H](CO)C(=O)N[C@@H](CO)C(=O)NCC(=O)N[C@@H](C)C(=O)N1CCC[C@H]1C(=O)N1CCC[C@H]1C(=O)N1CCC[C@H]1C(=O)N[C@@H](CO)C(=O)O [HEC-PT78] | 0.532 | 4.5 | 0.215 | 15.8 ± 2.6 | 12.0 ± 2.5 | 9.2 ± 1.5 | 7.3 ± 0.7 | 4.6 ± 0.6 | 927.1±135.2^a | 
3 | CC[C@H](C)[C@H](NC(=O)[C@H](Cc1ccccc1)NC(=O)[C@H](C)NC(=O)[C@H](CCCNC(=N)N)NC(=O)[C@H](CCC(N)=O)NC(=O)[C@H](C)NC(=O)[C@H](CCCCNC(=O)COCCOCCNC(=O)CC[C@H](NC(=O)CCCCCCCCCCCCCCCCCCC(=O)O)C(=O)O)NC(=O)[C@H](CCC(=O)O)NC(=O)[C@H](CC(=O)O)NC(=O)[C@H](CC(C)C)NC(=O)[C@H](CC(C)C)NC(=O)[C@@H](NC(=O)[C@H](CO)NC(=O)[C@H](Cc1ccc(O)cc1)NC(=O)[C@H](CC(=O)O)NC(=O)[C@H](CO)NC(=O)[C@@H](NC(=O)[C@](C)(Cc1ccccc1F)NC(=O)[C@@H](NC(=O)CNC(=O)[C@H](CCC(N)=O)NC(=O)C(C)(C)NC(=O)[C@@H](N)Cc1ccc(O)cc1)[C@@H](C)O)[C@@H](C)O)[C@@H](C)CC)C(=O)N[C@@H](CCC(=O)O)C(=O)N[C@@H](Cc1ccc(O)cc1)C(=O)N[C@@H](CC(C)C)C(=O)N[C@@H](CC(C)C)C(=O)N[C@@H](CCC(=O)O)C(=O)NCC(=O)NCC(=O)N1CCC[C@H]1C(=O)N[C@@H](CO)C(=O)N[C@@H](CO)C(=O)NCC(=O)N[C@@H](C)C(=O)N1CCC[C@H]1C(=O)N1CCC[C@H]1C(=O)N1CCC[C@H]1C(=O)N[C@@H](CO)C(=O)O [HEC-PT85] | 0.255 | 0.602 | 0.237 |  |  |  |  |  |  | blood glucose after administration ([5]; db/db mice, 10 nmol/kg): significantly reduce blood glucose; Random blood glucose (mM) D0 ([5]; db/db mice, 10 nmol/kg s.c. once every three days, D0 (before first dose)): 26.2 ± 2.8 mM; Random blood glucose (mM) D3 ([5]; db/db mice, 10 nmol/kg s.c. once every three days, D3): 11.8 ± 3.6 mM; Random blood glucose (mM) D4 ([5]; db/db mice, 10 nmol/kg s.c. once every three days, D4): 17.6 ± 3.1 mM; Random blood glucose (mM) D5 ([5]; db/db mice, 10 nmol/kg s.c. once every three days, D5): 20.2 ± 5.5 mM; Random blood glucose (mM) D6 ([5]; db/db mice, 10 nmol/kg s.c. once every three days, D6): 17.3 ± 3.4 mM; Random blood glucose (mM) D7 ([5]; db/db mice, 10 nmol/kg s.c. once every three days, D7): 21.3 ± 3.5 mM; Random blood glucose (mM) D10 ([5]; db/db mice, 10 nmol/kg s.c. once every three days, D10): 11.8 ± 3.8 mM; Random blood glucose (mM) D13 ([5]; db/db mice, 10 nmol/kg s.c. once every three days, D13): 14.7 ± 4.9 mM; Random blood glucose (mM) D16 ([5]; db/db mice, 10 nmol/kg s.c. once every three days, D16): 12.8 ± 3.9 mM; Random blood glucose (mM) D19 ([5]; db/db mice, 10 nmol/kg s.c. once every three days, D19): 13.7 ± 2.5 mM; Random blood glucose (mM) D22 ([5]; db/db mice, 10 nmol/kg s.c. once every three days, D22): 17.2 ± 4.2 mM; Random blood glucose (mM) D25 ([5]; db/db mice, 10 nmol/kg s.c. once every three days, D25): 15.7±4.5^a mM; Random blood glucose (mM) 6 h ([5]; db/db mice, 10 nmol/kg s.c., 6 h): 15.3 ± 5.4 mM; Random blood glucose (mM) 24 h ([5]; db/db mice, 10 nmol/kg s.c., 24 h): 10.1 ± 3.7 mM; Random blood glucose (mM) 48 h ([5]; db/db mice, 10 nmol/kg s.c., 48 h): 12.9 ± 4.2 mM; time at which blood glucose levels reached the lowest level ([5]; db/db mice, 10 nmol/kg, after administration): about 24 hours; blood glucose lowering after long-term administration compared with LY3298176 ([5]; db/db mice, long-term repeated administration): not inferior to the positive control LY3298176; blood glucose reducing effect after administration compared with LY3298176 ([5]; db/db mice, same dose 10 nmol/kg): slightly better than the positive control LY3298176; blood glucose level after long-term administration ([5]; type II diabetes model db/db mice): significantly improve the blood glucose level
